The values that follow come from EP4778516A1, “CALCIFICATION ENHANCER FOR OSTEOBLAST MC3T3-E1 CELL” (Watanabe Oyster Laboratory Co., Ltd., priority 2023, dated 2025).

What all share (type): cell-based, mouse
Experiment [1] deals with NF-kB p65. In words: Western blotting of cell lysates. As to conditions: 3 days. The procedure: MC3T3-E1 cells (1×10^6 cells in 10 ml medium in a 100-mm dish) were cultured for 3 days in a-MEM containing 10% FBS and 1% P/S in the presence of a reagent vehicle (1% ethanol as final concentration), DHMBA (10 mM), TNF-a (10 ng/ml medium), or DHMBA (10 mM) in combination with TNF-a (10 ng/ml). After culture, the dishes were washed three times with cold PBS (10 ml), and adherent cells were removed from the dishes by scraping in Cell Lysis Buffer (Cell Signaling Technology, Inc., Danvers, MA, USA). Protein samples obtained from the cell lysates were loaded ([…] per lane) and separated by SDS-polyacrylamide gel electrophoresis (12% SDS-PAGE), as previously described. After electrophoresis, the membranes were incubated overnight at 4°C with primary antibodies (each diluted 1:1,000) against target proteins NF-kB p65 (catalog no. 3034, rabbit) and b-actin (catalog no. 3700, mouse). […] Protein bands were then detected using a chemiluminescent substrate (catalog no. 34577, Thermo Fisher Scientific Inc., Rockford, IL, USA) on X-ray film. A total of four films obtained from four independent experiments using separate membranes were scanned using an Epson Perfection 1660 Photo scanner, and band intensities were quantified using ImageJ2 software (National Institutes of Health, Bethesda, MD, USA).
On the technique in general: A western blot detects proteins with antibodies after separation by electrophoresis.

Experiment [2] relates to MC3T3-E1 cells. In words: Cell death assay (count of attached cells after 48 hours from subconfluence). The procedure: To evaluate the effects of DHMBA on cell death of osteoblasts MC3T3-E1, the cells (1×10^5/ml medium per well in a 24-well plate) were cultured in a-MEM containing 10% FBS and 1% P/S. After culturing for 3 days until reaching subconfluence, either a reagent vehicle (1% ethanol as final concentration) or DHMBA (0.1, 1, 10, 100, or 1000 mM) was added, and the cells were further cultured for 48 hours. After culture, to count the number of cells attached to each well, a […] containing 0.05% trypsin and EDTA (0.1 ml per well) was added, and then the culture plates were incubated at 37°C for 2 minutes. Subsequently, a-MEM (0.9 ml) containing 10% FBS and 1% P/S was added, and the cells were detached and mixed by pipetting. The cell suspension (0.1 ml) was mixed with 0.1 ml of 0.5% trypan blue staining solution. By this staining, […]. Viable cells were counted under a microscope (Olympus MTV-3) using a hemocytometer (Sigma-Aldrich, St. Louis, MO) and a cell counter (H-102P, Line Seiki Co., Ltd., Tokyo, Japan), and the average of two counts was calculated. Cell numbers were expressed as the number per well.

The test system of experiment [3] is NF-kB. In words: NF-kB reporter assay (luciferase). As to conditions: Fig. 8C. On the procedure:
An NF-kB-responsive luciferase reporter assay (pNF-kB-Luc, BD Biosciences) was performed according to the method previously described by the present inventors. MC3T3-E1 cells (2×10^4 cells per well in […] in a 96-well plate) were cultured for 24 hours in a-MEM containing 10% FBS and 1% P/S. After culture, the medium was removed, and the cells were washed twice with a-MEM without FBS or antibiotics. a-MEM ([…]) without FBS or antibiotics was then added to each well containing the cells. A reporter plasmid or an empty vector control (pGL3-Basic) was transfected into MC3T3-E1 cells using Lipofectamine 2000 Reagent (Invitrogen) in a-MEM without FBS or antibiotics. Five hours later, the medium was replaced with a-MEM containing 10% FBS and 1% P/S, and the cells were stimulated with TNF-a (1 or 10 ng/ml) for 24 hours. In parallel, the cells were cultured with either a reagent vehicle (1% ethanol as final concentration) or DHMBA (1 or 10 mM). After culture, the cells were extracted with Passive Lysis Buffer (Promega Corp., Madison, WI), and luciferase activity was measured using a Luciferase Assay System (Promega Corp.) with a microplate reader (Turner Designs, Inc., Sunnyvale, CA, USA). Equal transfection efficiency among all plasmids was validated by using the luciferase reporter plasmid pRL-SV40 (Promega Corp., Madison, WI).
For orientation: In a reporter assay the amount or activity of a reporter protein is the signal.

The subject of experiment [4] is RAW264.7 cells. Kind of experiment: TNF-a production assay (ELISA). The settings on record: LPS 10 or 100 ng/ml, DHMBA 1 or 10 mM; Fig. 7A. On the procedure: RAW264.7 cells (1× 10^5/ml per well) were cultured in DMEM containing 10% FBS and 1% P/S in a 24-well plate for 3 days until reaching subconfluence. […] The cells were detached from each culture dish to count the cell numbers as described in the section "Cell proliferation assay". […] The concentration of TNF-a in the medium was analyzed using a mouse TNF-a ELISA kit (catalog no. KHC301) purchased from Cayman Chemical Company (Ann Arbor, MI, USA) in accordance with the manufacturer's instructions. TNF-a production was expressed as the amount of TNF-a secreted into the medium in picograms per milliliter (pg/ml).
In general terms: An ELISA detects its analyte on a solid surface through an enzyme-linked reagent.

Experiment [5] concerns MC3T3-E1 cells. Kind of experiment: Osteoblast differentiation assay and Alizarin Red S staining (calcification). The procedure:
MC3T3-E1 cells (10^5 cells/ml medium per well in a 12-well plate) were cultured for 3 days in a-MEM (1.0 ml per well) containing 10% FBS and 1% P/S. Thereafter, the medium was replaced, as previously described, with calcification-promoting medium, that is, a-MEM supplemented with 10% FBS, 1% P/S, L-ascorbic acid ([…]), and 4 mM b- glycerophosphoric acid. DHMBA was added at a concentration of 1 or 10 mM, and the cells were cultured for 18 days, with the medium replaced every 3 days with fresh medium. On day 18 of culture, the cells were rinsed with PBS and fixed by addition of ice-cold 75% ethanol at 4°C for 30 minutes. Then, calcium deposition was visualized by staining with Alizarin Red S (40 mM, pH 6.2). After incubation at room temperature for 30 minutes, the staining solution was removed by thorough washing with distilled water. Stained cells on the plates were photographed under a microscope (×40) (Olympus IX71, Olympus Corp., Tokyo, Japan) and imaged using ImageJ2 software. For quantification, the stained cells in each plate were solubilized by addition of 10% cetylpyridinium chloride solution, and absorbance was measured at 570 nm.

As for `COc1c(O)cc(CO)cc1O` [DHMBA, 3,5-dihydroxy-4-methoxybenzyl alcohol], the “expression level of NF-kB p65 in MC3T3-E1 cells” value in experiment [1] (DHMBA 10 mM, without TNF-a, Figs. 8A and 8B) is reported as “reduced”. Besides, the “TNF-a-induced increase of the level of NF-kB p65” value in experiment [1] (TNF-a 10 ng/ml plus DHMBA 10 mM, Fig. 8A and 8B) is listed as “suppressed”. Moreover, in experiment [2] (DHMBA 0.1, 1, 10, or 100 mM, 48 hours after subconfluence, Fig. 1C), the “number of cells attached to the dishes (cell death)” value is listed as “not changed”. Also, the “number of cells (cell death)” value in experiment [2] (DHMBA 1000 mM, 48 hours after subconfluence, Fig. 1C) is recorded as “significantly decreased”. Besides, the “TNF-a-enhanced death of MC3T3-E1 cells” value in experiment [2] (TNF-a 1 or 10 ng/ml plus DHMBA 1 or 10 mM, 48 hours, Fig. 3B) is reported as “suppressed”. Further, in experiment [3] (DHMBA in the absence of TNF-a), the “NF-kB promoter activity in MC3T3-E1 cells” value was “reduced”. In addition, the “TNF-a-induced increase of NF-kB promoter activity in MC3T3-E1 cells” value in experiment [3] (TNF-a 1 or 10 ng/ml plus, 24 hours) is recorded as “suppressed”. Moreover, in experiment [4], the “LPS-induced increase of production of TNF-a in RAW264.7 cells” value is reported as “suppressed”. Moreover, the “calcification of MC3T3-E1 cells” value in experiment [5] (DHMBA 1 or 10 mM, 18 days in calcification-promoting medium, Alizarin Red, absorbance 570 nm, Figs. 2A and 2B) was “enhanced”. Also, the “TNF-a-induced suppression of calcification of osteoblasts” value in experiment [5] (TNF-a 1 ng/ml plus DHMBA 1 or 10 mM, 18 days, Fig. 4) is recorded as “suppressed”.
